What is called IC50 is the concentration at which inhibition is half-maximal.

Structures are written as SMILES. Bounds are passed on as bounds.

For one assay, the system named is pERK in H727 cells. Description: Inhibition of KRas phosphorylation of ERK (Cisbio HTRF pERK assay). To be noted: Homo sapiens, NCI-H727, read-out: Inhibition (HTRF IC50) of KRas-mediated Phosphorylation of ERK, H727. (In TR-FRET formats the signal depends on donor and acceptor labels being close together.)
The next assay concerns pERK in PSN1 cells. The description is as above. Conditions: Homo sapiens, PSN1, 3 h, read-out: Inhibition (HTRF IC50) of KRas-mediated Phosphorylation of ERK, PSN1.
The test system of the next assay is pERK in ASPC1 cells. The description is as above. Conditions: Homo sapiens, ASPC1, read-out: Inhibition (HTRF IC50) of KRas-mediated Phosphorylation of ERK, AsPC-1.
Another assay deals with KRas G12R (Homo sapiens, UniProt P01116, G12R). Description: biochemical.
The test system of the next assay is pERK in H460 cells. Description: Inhibition of KRas phosphorylation of ERK (Cisbio HTRF pERK assay). Conditions: Homo sapiens, NCI-H460, read-out: Inhibition (HTRF IC50) of KRas-mediated Phosphorylation of ERK, H460.
In a further assay the test system is pERK in H358 cells. Described as above. Conditions: Homo sapiens, NCI-H358, read-out: Inhibition (HTRF IC50) of KRas-mediated Phosphorylation of ERK, H358.
A further assay concerns pERK in MKN1 cells. The assay is described as above. To be noted: Homo sapiens, MKN-1, 3 h, read-out: Inhibition (HTRF IC50) of KRas-mediated Phosphorylation of ERK, MKN1.
The target of the next assay is KRas G12V (Homo sapiens, UniProt P01116, G12V). Description: biochemical.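 Note: KRas binding measured by TR-FRET displacement at room temperature, IC50 fitted from percent of control values.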
The next assay deals with KRas G12D (Homo sapiens, UniProt P01116, G12D). Description: biochemical.
Another assay deals with pERK in HCT116 cells. Description: Inhibition of KRas phosphorylation of ERK (Cisbio HTRF pERK assay). Conditions: Homo sapiens, HCT-116, read-out: Inhibition (HTRF IC50) of KRas-mediated Phosphorylation of ERK, HCT116.
In assay [1] the test system is phospho-ERK in NCI-H727 (G12V) cells. Description: Inhibition of KRas-mediated phosphorylation of ERK (in-cell western). The format is cell-based. To be noted: Homo sapiens, NCI-H727, 3 h, 3 hours compound, phospho-ERK normalized to GAPDH. The gist of the method:
(§1)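 After a 3-hour incubation with diluted compound in 0.5% DMSO, cells are fixed, permeabilized and stained overnight at 4° C for phosphorylated ERK and GAPDH.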

Assay [2] has as its system phospho-ERK in AsPC-1 (G12D) cells. The description is as above. The format is cell-based. Conditions: Homo sapiens, ASPC1, 3 h, 3 hours compound, phospho-ERK normalized to GAPDH. In a few lines:
as §1

The subject of assay [3] is phospho-ERK in NCI-H460 (Q61H) cells. The assay is described as above. The format is cell-based. To be noted: Homo sapiens, NCI-H460, 3 h, 3 hours compound, phospho-ERK normalized to GAPDH. In a few lines:
as §1

The test system of another assay is pERK in A549 cells. Description: Inhibition of KRas phosphorylation of ERK (Cisbio HTRF pERK assay). Conditions: Homo sapiens, A549, read-out: Inhibition (HTRF IC50) of KRas-mediated Phosphorylation of ERK, A549.

Chain of KRas G12R (P01116 1-169 isoform P01116-2 G12R): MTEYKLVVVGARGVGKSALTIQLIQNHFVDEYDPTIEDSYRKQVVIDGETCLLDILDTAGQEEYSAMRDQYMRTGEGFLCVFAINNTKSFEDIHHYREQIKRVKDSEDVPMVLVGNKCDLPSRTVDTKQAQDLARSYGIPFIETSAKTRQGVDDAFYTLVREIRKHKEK
Chain of KRas G12V (P01116 1-169 isoform P01116-2 G12V): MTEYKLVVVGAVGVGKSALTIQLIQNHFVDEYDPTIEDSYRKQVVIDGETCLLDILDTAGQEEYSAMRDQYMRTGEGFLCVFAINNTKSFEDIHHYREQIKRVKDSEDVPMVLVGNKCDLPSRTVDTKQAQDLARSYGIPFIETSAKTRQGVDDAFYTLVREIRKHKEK
Chain of KRas G12D (P01116 1-169 isoform P01116-2 G12D): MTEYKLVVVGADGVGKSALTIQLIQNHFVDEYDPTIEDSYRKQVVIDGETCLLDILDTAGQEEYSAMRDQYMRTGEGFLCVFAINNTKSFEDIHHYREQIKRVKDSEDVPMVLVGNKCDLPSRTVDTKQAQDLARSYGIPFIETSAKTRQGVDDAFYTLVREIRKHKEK

Turning to `CCc1c(F)ccc2cc(O)cc(-c3ncc4c(N5CCCC(O)CC5)nc(OC[C@@]56CCCN5C[C@H](F)C6)nc4c3F)c12` (stereo in doubt) [Example 346, 1-(7-(8-ethyl-7-fluoro-3-hydroxynaphthalen-1-yl)-8-fluoro-2-(((2R,7aS)-2-fluorohexahydro-1H-pyrrolizin-7a-yl)methoxy)pyrido[4,3-d]pyrimidin-4-yl)azepan-4-ol], the IC50 in the assay with pERK in H727 cells was 113 nM; with pERK in PSN1 cells, 7390 nM; with pERK in ASPC1 cells, 99 nM; against KRas G12R it was ≤ 2 nM; in the assay with pERK in H460 cells it was 166 nM; in the assay on pERK in H358 cells, 57 nM. In addition, the IC50 in the assay with pERK in MKN1 cells is 11 nM; at KRas G12V, ≤ 2 nM; on KRas G12D it was ≤ 2 nM; in the assay on pERK in HCT116 cells it was 133 nM.
Consider `CCc1c(F)ccc2cc(O)cc(-c3ncc4c(N5CCOCC(O)C5)nc(OC[C@@]56CCCN5C[C@H](F)C6)nc4c3F)c12` (stereo partly drawn) [Example 345, 4-(7-(8-ethyl-7-fluoro-3-hydroxynaphthalen-1-yl)-8-fluoro-2-(((2R,7aS)-2-fluorotetrahydro-1H-pyrrolizin-7a(5H)-yl)methoxy)pyrido[4,3-d]pyrimidin-4-yl)-1,4-oxazepan-6-ol], for which the IC50 was found to be 138 nM with pERK in H727 cells; 8780 nM with pERK in PSN1 cells; 83 nM in the assay on pERK in ASPC1 cells; 82 nM in the assay with pERK in H460 cells; 20 nM in the assay with pERK in H358 cells; 13 nM with pERK in MKN1 cells. Moreover, the IC50 in the assay with pERK in HCT116 cells turned out to be 296 nM.
For the molecule `CCc1c(F)ccc2cc(O)cc(-c3ncc4c(N5C[C@@H]6C[C@H](C5)[C@H](O)C6)nc(OCC5(CN(C)C)CC5)nc4c3F)c12` [Example 360, (1R,5R,6R)-3-(2-((1-((dimethylamino)methyl)cyclopropyl)methoxy)-7-(8-ethyl-7-fluoro-3-hydroxynaphthalen-1-yl)-8-fluoropyrido[4,3-d]pyrimidin-4-yl)-3-azabicyclo[3,2,1]octan-6-ol], the IC50 in the assay with pERK in H727 cells was 62 nM; with pERK in PSN1 cells, 9190 nM; in the assay on pERK in ASPC1 cells, 49 nM; against KRas G12R, ≤ 2 nM; in the assay with pERK in H460 cells, 54 nM; in the assay on pERK in H358 cells, 19 nM. Also, the IC50 is 2 nM with pERK in MKN1 cells, ≤ 2 nM against KRas G12V, 5 nM against KRas G12D and 140 nM in the assay with pERK in HCT116 cells.
With `CCc1c(F)ccc2cc(O)cc(-c3ncc4c(N5CCC[C@@](C)(O)C5)nc(OCC(C)(C)CN(C)C)nc4c3F)c12` [Example 366, (R)-1-(2-(3-(dimethylamino)-2,2-dimethylpropoxy)-7-(8-ethyl-7-fluoro-3-hydroxynaphthalen-1-yl)-8-fluoropyrido[4,3-d]pyrimidin-4-yl)-3-methylpiperidin-3-ol], the IC50 was determined as 185 nM in the assay with pERK in H727 cells; 5530 nM in the assay with pERK in PSN1 cells; 60 nM in the assay with pERK in ASPC1 cells; 9 nM at KRas G12R; 108 nM with pERK in H460 cells; 61 nM with pERK in H358 cells. Further, the IC50 with pERK in MKN1 cells came to 11 nM; against KRas G12V it was 3 nM; at KRas G12D it was 3 nM; in the assay on pERK in HCT116 cells, 321 nM.
`C#Cc1c(F)ccc2cc(O)cc(-c3ncc4c(N5CCOCC(CO)C5)nc(OC[C@@]56CCCN5C[C@H](F)C6)nc4c3F)c12` (stereo partly drawn) [Example 391, 5-ethynyl-6-fluoro-4-(8-fluoro-2-(((2R,7aS)-2-fluorohexahydro-1H-pyrrolizin-7a-yl)methoxy)-4-(6-(hydroxymethyl)-1,4-oxazepan-4-yl)pyrido[4,3-d]pyrimidin-7-yl)naphthalen-2-ol]: the IC50 in the assay with pERK in H727 cells was 74 nM; in the assay on pERK in PSN1 cells, 3990 nM; in the assay with pERK in ASPC1 cells it was 61 nM; at KRas G12R, ≤ 2 nM; in the assay with pERK in H460 cells, 143 nM; in the assay on pERK in H358 cells it was 22 nM. Also, the IC50 in the assay with pERK in MKN1 cells was 12 nM; against KRas G12V it was ≤ 2 nM; against KRas G12D, ≤ 2 nM; in the assay with pERK in HCT116 cells it was 563 nM.
`O=C1NC(=O)C2(CCCN(c3nc(OC[C@@]45CCCN4C[C@H](F)C5)nc4c(F)c(-c5cc(O)cc6ccc(F)c(F)c56)ncc34)C2)N1` (stereo partly drawn) [Example 444, 7-(7-(7,8-difluoro-3-hydroxynaphthalen-1-yl)-8-fluoro-2-(((2R,7aS)-2-fluorohexahydro-1H-pyrrolizin-7a-yl)methoxy)pyrido[4,3-d]pyrimidin-4-yl)-1,3,7-triazaspiro[4.5]decane-2,4-dione]: the IC50 was 1160 nM with pERK in H727 cells; ≥ 10000 nM in the assay with pERK in PSN1 cells; 1690 nM in the assay on pERK in ASPC1 cells; ≤ 2 nM against KRas G12R; 1560 nM in the assay on pERK in H460 cells; 37 nM with pERK in MKN1 cells. Also, the IC50 is ≤ 2 nM on KRas G12V; 1740 nM in [1]; 2440 nM in [2]; 656 nM in [3]; 734 nM in the assay with pERK in A549 cells; 5 nM against KRas G12D. For the same molecule, the IC50 in the assay on pERK in HCT116 cells came to 1760 nM.
`O=C1CC2(CCCN(c3nc(OC[C@@]45CCCN4C[C@H](F)C5)nc4c(F)c(-c5cc(O)cc6ccc(F)c(F)c56)ncc34)C2)N1` (stereo partly drawn) [Example 452, 6-(7-(7,8-difluoro-3-hydroxynaphthalen-1-yl)-8-fluoro-2-(((2R,7aS)-2-fluorohexahydro-1H-pyrrolizin-7a-yl)methoxy)pyrido[4,3-d]pyrimidin-4-yl)-1,6-diazaspiro[3.5]nonan-2-one]: the IC50 in the assay on pERK in H727 cells is 165 nM; with pERK in PSN1 cells it was 4080 nM; with pERK in ASPC1 cells, 204 nM; on KRas G12R it was ≤ 2 nM; in the assay on pERK in H460 cells it was 639 nM; in the assay with pERK in MKN1 cells it was 41 nM. For the same molecule, the IC50 at KRas G12V is ≤ 2 nM; in [1], 793 nM; in [2], 182 nM; in assay [3], 154 nM; in the assay on pERK in A549 cells, 224 nM; at KRas G12D it was 4 nM. The IC50 in the assay with pERK in HCT116 cells amounted to 1510 nM.
Turning to `CCc1c(F)ccc2cc(O)cc(-c3ncc4c(N5CCCn6nc(C(=O)N(C)C)c(F)c6C5)nc(OC[C@@]56CCCN5C[C@H](F)C6)nc4c3F)c12` [Example 505, 5-(7-(8-ethyl-7-fluoro-3-hydroxynaphthalen-1-yl)-8-fluoro-2-(((2R,7aS)-2-fluorohexahydro-1H-pyrrolizin-7a-yl)methoxy)pyrido[4,3-d]pyrimidin-4-yl)-3-fluoro-N,N-dimethyl-5,6,7,8-tetrahydro-4H-pyrazolo[1,5-a][1,4]diazepine-2-carboxamide], the IC50 with pERK in H727 cells is 50 nM; with pERK in PSN1 cells it was ≥ 10000 nM; in the assay on pERK in ASPC1 cells, 14 nM; at KRas G12R, ≤ 2 nM; in the assay with pERK in H460 cells, 327 nM; in the assay on pERK in H358 cells, 16 nM. For the same molecule, the IC50 in the assay with pERK in MKN1 cells is 31 nM; on KRas G12V, ≤ 2 nM; against KRas G12D it was ≤ 2 nM.
For the molecule `CCc1c(F)ccc2cc(O)cc(-c3ncc4c(N5CCCC6(CCC(O)C6)C5)nc(OC[C@@]56CCCN5C[C@H](F)C6)nc4c3F)c12` (stereo partly drawn) [Example 510, 7-(7-(8-ethyl-7-fluoro-3-hydroxynaphthalen-1-yl)-8-fluoro-2-(((2R,7aS)-2-fluorotetrahydro-1H-pyrrolizin-7a(5H)-yl)methoxy)pyrido[4,3-d]pyrimidin-4-yl)-7-azaspiro[4.5]decan-2-ol], the IC50 with pERK in H727 cells was determined as 388 nM; in the assay with pERK in PSN1 cells, 5100 nM; in the assay with pERK in ASPC1 cells, 186 nM; against KRas G12R, 9 nM; with pERK in H460 cells it was 397 nM; with pERK in MKN1 cells, 73 nM. In addition, the IC50 on KRas G12V was 8 nM; in the assay with pERK in A549 cells, 515 nM; on KRas G12D, 10 nM; with pERK in HCT116 cells, 954 nM.

The values above are taken from US12398154B2, “Azaquinazoline pan-KRas inhibitors” (Mirati Therapeutics, Inc., priority 2020, dated 2025).
